The text below walks through data of publication PMC6165285, “α-Glucosidase Inhibitors: Diphenyl Ethers and Phenolic Bisabolane Sesquiterpenoids from the Mangrove Endophytic Fungus Aspergillus flavus QQSG-3” (Marine Drugs, 2018).

“Also recorded” adds a separate entry of the source.

For this experiment, the target named is α-glucosidase (Saccharomyces cerevisiae, UniProt P53341). Briefly: α-Glucosidase inhibitory activity (p-nitrophenyl-α-glucopyranoside substrate, absorbance at 405 nm). It counts as biochemical. The following applies: compared to the positive control acarbose. Here is the method:
α-Glucosidase was assayed according to standard procedures. […] Ten microliters of testing materials (in triplicate) were incubated for 10 min with 20 μL of enzyme stock solution and 60 μL of PBS. After incubation, 10 μL of substrate was added and incubated for 20 min at 37 °C. Absorbance at 405 nm was then determined.
The inhibitory activity of the isolates was determined as a percentage in comparison to a blank (DMSO) according to the following equation: %αGHY=(1−A405t/A405c)×100% where %αGHY is the percentage of inhibition, A405t is the corrected absorbance of the compound under testing (A405end − A405initial), and A405c is the absorbance of the blank (A405endblank − A405initialblank). The IC50 values of compounds were calculated by the nonlinear regression analysis.

α-glucosidase, sequence (P53341 whole entry): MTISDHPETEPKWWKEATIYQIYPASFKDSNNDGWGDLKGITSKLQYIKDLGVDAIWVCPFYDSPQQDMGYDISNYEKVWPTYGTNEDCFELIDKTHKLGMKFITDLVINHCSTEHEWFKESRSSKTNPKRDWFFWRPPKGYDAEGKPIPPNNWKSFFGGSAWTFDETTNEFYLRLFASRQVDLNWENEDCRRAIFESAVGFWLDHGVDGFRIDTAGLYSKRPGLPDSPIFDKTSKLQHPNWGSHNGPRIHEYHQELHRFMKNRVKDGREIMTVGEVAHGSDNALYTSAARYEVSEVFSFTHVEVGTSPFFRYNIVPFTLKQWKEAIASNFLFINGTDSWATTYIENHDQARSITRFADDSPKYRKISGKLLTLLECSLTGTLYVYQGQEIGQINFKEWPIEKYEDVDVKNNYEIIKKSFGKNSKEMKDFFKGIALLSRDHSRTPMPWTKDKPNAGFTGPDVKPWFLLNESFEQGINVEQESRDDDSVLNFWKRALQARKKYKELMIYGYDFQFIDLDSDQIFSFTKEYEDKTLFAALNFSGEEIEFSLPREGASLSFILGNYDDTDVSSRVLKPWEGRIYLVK

Turning to `Cc1cc(O)cc(Oc2cc(C)c(O)c(O)c2)c1` [Compound 1], the “α-glucosidase inhibitory activity, result in words” value (shortened to “α-glucosidase inhibitory activity”) was “better than that of acarbose”.

On to `Cc1cc(O)cc(Oc2cc(C)c(C(=O)OCC(O)C(O)CO)c(O)c2)c1` (stereo not drawn) [Compound 2], for which the “α-glucosidase inhibitory activity” value is listed as “better than that of acarbose”.

In the case of `C/C(=C\CCC(C)C)c1ccc(Cc2cc(C)cc(O)c2O)cc1O` [Compound 3], the “α-glucosidase inhibitory activity” value is given as “strong inhibitory activity; also recorded: strong inhibitory effects”.

With `CC(C)CCCC(C)(O)c1ccc(COCc2ccc(C(C)(O)CCCC(C)C)c(O)c2)cc1O` (stereo not drawn) [Compound 5], the “α-glucosidase inhibitory activity” value is “strong inhibitory activity; also recorded: strong inhibitory effects”.

As for `Cc1cc(O)cc(Oc2cc(C)cc(OCc3ccc([C@@](C)(O)CCCC(C)C)c(O)c3)c2)c1` [Compound 10, peniciaculin A], the “α-glucosidase inhibitory activity” value is on record as “strong inhibitory activity; also recorded: strong inhibitory effects”.

Consider `C/C(=C\CCC(C)C)c1ccc(Cc2c(C)cc(Oc3cc(C)cc(O)c3)cc2O)cc1O` [Compound 11, expansol D], for which the “α-glucosidase inhibitory activity” value is on record as “strong inhibitory activity; also recorded: strong inhibitory effects”.
